Each block holds one compound with its values, some of them ahead of it. Calls of active or inactive are those of the source. The calls are words filed in the database; no cut-off is given here.
Tests used:
[1] = target: T1, von Hippel-Lindau disease tumor suppressor/Hepatocyte growth factor receptor (Homo sapiens, UniProt P08581+P40337); assay: PROTAC activity at VHL/c-MET in human MKN-45 cells assessed as induction of c-MET degradation by measuring residual activity at 100 nM incubated for 24 hrs by Western blot analysis (reference value: 100 %); format: cell-based
MKN-45 [2] = assay: Antiproliferative activity against human MKN-45 cells incubated for 72 hrs by CCK8 assay; format: functional, cell-based; conditions: MKN-45, 72 h
[3] = target: T1, von Hippel-Lindau disease tumor suppressor/Hepatocyte growth factor receptor; assay: PROTAC activity at VHL/c-MET in human MKN-45 cells assessed as induction of c-MET degradation at 100 to 1000 nM incubated for 24 hrs by Western blot analysis relative to control; format: cell-based; conditions: dose 100-1000 nM
[4] = target: T1, von Hippel-Lindau disease tumor suppressor/Hepatocyte growth factor receptor; assay: PROTAC activity at VHL/c-MET (unknown origin); format: protein
[5] = target: T2, Protein cereblon/Hepatocyte growth factor receptor (Homo sapiens, UniProt P08581+Q96SW2); assay: PROTAC activity at CRBN/c-MET in human MKN-45 cells assessed as induction of c-MET degradation at 1000 nM incubated for 24 hrs by Western blot analysis; format: cell-based
[6] = target: T2, Protein cereblon/Hepatocyte growth factor receptor; assay: PROTAC activity at CRBN/c-MET in human MKN-45 cells assessed as induction of c-MET degradation incubated for 72 hrs by Western blot analysis; format: cell-based
[7] = Tmax in Wistar rat at 20 mg/kg, po measured after 24 hrs by UPLC-MS/MS analysis; format: ADME, organism-based; conditions: in vivo
[8] = Toxicity in BALB/c nude mouse xenografted with human MKN-45 cells assessed as effect on heart morphology at 10 mg/kg, po administered once daily for 21 days by H and E staining based analysis; format: organism-based; conditions: in vivo, 504 h, time 21 day
[9] = Cmax in po dosed rat; format: ADME, organism-based; conditions: in vivo
MKN-45 [10] = assay: Induction of c-MET degradation in human MKN-45 cells assessed as residual activity at 100 nM incubated for 24 hrs by Western blot analysis (reference value: 100 %); format: cell-based
[11] = Toxicity in BALB/c nude mouse xenografted with human MKN-45 cells assessed as body weight loss at 10 mg/kg, po administered once daily for 21 days; format: organism-based; conditions: in vivo, 504 h, time 21 day
[12] = AUC (0 to infinity) in po dosed rat; format: ADME, organism-based; conditions: in vivo
[13] = Toxicity in BALB/c nude mouse xenografted with human MKN-45 cells assessed as effect on liver morphology at 10 mg/kg, po administered once daily for 21 days by H and E staining based analysis; format: organism-based; conditions: in vivo, 504 h, time 21 day
[14] = Toxicity in BALB/c nude mouse xenografted with human MKN-45 cells assessed as effect on spleen morphology at 10 mg/kg, po administered once daily for 21 days by H and E staining based analysis; format: organism-based; conditions: in vivo, 504 h, time 21 day
[15] = Toxicity in BALB/c nude mouse xenografted with human MKN-45 cells assessed as effect on kidney morphology at 10 mg/kg, po administered once daily for 21 days by H and E staining based analysis; format: organism-based; conditions: in vivo, 504 h, time 21 day
[16] = Half-life in Wistar rat at 20 mg/kg, po measured after 24 hrs by UPLC-MS/MS analysis; format: ADME, organism-based; conditions: in vivo
[17] = Toxicity in BALB/c nude mouse xenografted with human MKN-45 cells assessed as effect on lung morphology at 10 mg/kg, po administered once daily for 21 days by H and E staining based analysis; format: organism-based; conditions: in vivo, 504 h, time 21 day
HCC1954 = assay: Antiproliferative activity against human HCC1954 cells incubated for 72 hrs by MTT assay; format: functional, cell-based; conditions: HCC1954, 72 h
MKN-45 [18] = assay: Upregulation of PDCD4 protein level in human MKN-45 cells by MS-based quantitative proteomics analysis; format: functional, cell-based
MKN-45 [19] = assay: Downregulation of HMGCS1 protein level in human MKN-45 cells by MS-based quantitative proteomics analysis; format: functional, cell-based
MKN-45 [20] = assay: Downregulation of prothymosin-alpha protein abundance in human MKN-45 cells by MS-based quantitative proteomics analysis; format: functional, cell-based
[21] = target: T2, Protein cereblon/Hepatocyte growth factor receptor; assay: PROTAC activity at CRBN/c-MET in human MKN-45 cells assessed as induction of c-MET degradation at 3.125 to 50 nM by Western blot analysis; format: cell-based; conditions: dose 3.125-50 nM
MKN-45 [22] = assay: Downregulation of SLC7A1 protein level in human MKN-45 cells by MS-based quantitative proteomics analysis; format: functional, cell-based
[23] = target: von Hippel-Lindau disease tumor suppressor/Importin subunit alpha-1 (Homo sapiens) (UniProt P52292+P40337); assay: PROTAC activity at VHL/KPNA2 in human MKN-45 cells assessed as induction of c-MET degradation at 6.25 to 100 nM incubated for 24 hrs by Western blot analysis; format: cell-based; conditions: dose 6.25-100 nM
[24] = target: T1, von Hippel-Lindau disease tumor suppressor/Hepatocyte growth factor receptor; assay: PROTAC activity at VHL/c-MET in human MKN-45 cells assessed as induction of c-MET degradation at 6.25 to 100 nM incubated for 24 hrs by Western blot analysis; format: cell-based; conditions: dose 6.25-100 nM
MKN-45 [25] = assay: Downregulation of KPNA2 protein level in human MKN-45 cells by MS-based quantitative proteomics analysis; format: functional, cell-based

Activity [1]: 19%
IC50 (MKN-45 [2]): 52.3 nM
Activity [3]: > 80%
SMILES: Cc1ncsc1-c1ccc([C@H](C)NC(=O)[C@@H]2C[C@@H](O)CN2C(=O)[C@@H](NC(=O)CCCCCCCNC(=O)c2ccc(-c3cnc4ncc(Cc5ccc6ncccc6c5)n4n3)cc2F)C(C)(C)C)cc1

DC50 [4]: > 10 nM
SMILES: COc1cc2c(Oc3ccc(NC(=O)C4(C(=O)Nc5ccc(F)cc5)CC4)cc3F)ccnc2cc1OCCCOCCCOCCC(=O)N[C@H](C(=O)N1C[C@H](O)C[C@H]1C(=O)NCc1ccc(-c2scnc2C)cc1)C(C)(C)C

IC50 (MKN-45 [2]): 15.3 nM
Activity [5]: inactive
SMILES: O=C(COc1cccc2c1C(=O)N(C1CCC(=O)NC1=O)C2=O)NCCCCCCCCNC(=O)c1ccc(-c2cnc3ncc(Cc4ccc5ncccc5c4)n3n2)cc1F (stereo not drawn)

IC50 (HCC1954): 6700 nM
DC50 [4]: > 1110 nM
SMILES: COc1cc2c(Oc3ccc(NC(=O)C4(C(=O)Nc5ccc(F)cc5)CC4)cc3)ccnc2cc1OCCCOCCCOCCC(=O)N[C@H](C(=O)N1C[C@H](O)C[C@H]1C(=O)NCc1ccc(-c2scnc2C)cc1)C(C)(C)C

Activity [1]: 50%
IC50 (MKN-45 [2]): 102 nM
SMILES: Cc1ncsc1-c1ccc([C@H](C)NC(=O)[C@@H]2C[C@@H](O)CN2C(=O)[C@@H](NC(=O)CCCCCCCCC(=O)N2CCC(COc3cnc(-c4cccc(Cn5nc(-c6cccc(C#N)c6)ccc5=O)c4)nc3)CC2)C(C)(C)C)cc1
Activity (MKN-45 [18]): Active
Activity (MKN-45 [19]): Active
Activity (MKN-45 [20]): Active

Activity [1]: 68%
IC50 (MKN-45 [2]): 74.9 nM
SMILES: Cc1ncsc1-c1ccc([C@H](C)NC(=O)[C@@H]2C[C@@H](O)CN2C(=O)[C@@H](NC(=O)CCCCCNC(=O)c2ccc(-c3cnc4ncc(Cc5ccc6ncccc6c5)n4n3)cc2F)C(C)(C)C)cc1

Activity [1]: 64%
Activity [23]: Active
Activity [24]: Active
IC50 (MKN-45 [2]): 70.7 nM
SMILES: Cc1ncsc1-c1ccc([C@H](C)NC(=O)[C@@H]2C[C@@H](O)CN2C(=O)[C@@H](NC(=O)CCCCCCCCC(=O)N2CCC(n3cc(-c4cnc(N)c(O[C@H](C)c5c(Cl)ccc(F)c5Cl)c4)cn3)CC2)C(C)(C)C)cc1
Activity (MKN-45 [22]): Active
Activity (MKN-45 [18]): Active
Activity (MKN-45 [25]): Active

Activity [1]: 51%
IC50 (MKN-45 [2]): 29.1 nM
SMILES: Cc1ncsc1-c1ccc([C@H](C)NC(=O)[C@@H]2C[C@@H](O)CN2C(=O)[C@@H](NC(=O)CCCCCCCCCCCNC(=O)c2ccc(-c3cnc4ncc(Cc5ccc6ncccc6c5)n4n3)cc2F)C(C)(C)C)cc1

Further lines, the compound ahead of its results:

SMILES: C[C@@H](Oc1cc(-c2cnn(C3CCN(C(=O)CCCCCCCOc4cccc5c4C(=O)N(C4CCC(=O)NC4=O)C5=O)CC3)c2)cnc1N)c1c(Cl)ccc(F)c1Cl (stereo partly drawn)
DC50 [6]: > 100 nM
IC50 (MKN-45 [2]): 347 nM

SMILES: CNC(=O)c1ccc(-c2cnc3ncc(Cc4ccc5ncccc5c4)n3n2)cc1F [CAPMATINIB]
Tmax [7]: 0.5 h
Activity [8]: Non-toxic
Cmax [9]: 3820 ng/mL
Activity (MKN-45 [10]): 112%
Activity [11]: Non-toxic
AUC(0-inf) [12]: 10400 ng·h/mL
Activity [13]: Non-toxic
Activity [14]: Non-toxic
Activity [15]: Non-toxic
half-life [16]: 4.09 h
Activity [17]: Non-toxic

SMILES: CN1C(=O)CCC(N2C(=O)c3ccc(N4CCN(CC5CCN(C(=O)c6ccc(-c7cnc8ncc(Cc9ccc%10ncccc%10c9)n8n7)cc6F)CC5)CC4)cc3C2=O)C1=O (stereo not drawn)
IC50 (MKN-45 [2]): 73.5 nM
Activity [21]: inactive

SMILES: O=C(COc1cccc2c1C(=O)N(C1CCC(=O)NC1=O)C2=O)NCCCCCCCCCCNC(=O)c1ccc(-c2cnc3ncc(Cc4ccc5ncccc5c4)n3n2)cc1F (stereo not drawn)
IC50 (MKN-45 [2]): 27.3 nM
Activity [5]: inactive

SMILES: C[C@@H](Oc1cc(-c2cnn(C3CCNCC3)c2)cnc1N)c1c(Cl)ccc(F)c1Cl
Activity (MKN-45 [10]): 110%

SMILES: CN1CCC(COc2cnc(-c3cccc(Cn4nc(-c5cccc(C#N)c5)ccc4=O)c3)nc2)CC1
Activity (MKN-45 [10]): 107%
